Reference: article PMC3871595, “Structure Based Identification and Characterization of Flavonoids That Disrupt Human Papillomavirus-16 E6 Function” (PLoS ONE, 2013)
“Also recorded” adds a separate entry of the source.

Assays:
[1] = test system: RPE-1 cells; assay: p53/p21 immunoblot analysis in RPE-1 cells; assay type: cell-based, human; conditions: RPE-1 (HPV negative), 40 hours
Experimental: Caski cells, which are derived from an HPV-16 infected cervical carcinoma and express HPV-16 E6 and E7, were used to determine whether these compounds interfere with HPV-16 E6 function. Inhibition of E6 should block its ability to promote the degradation of p53 thereby increasing the levels of p53. […] These compounds were also assayed in telomerase immortalized human retinal epithelial cells (RPE-1). […] If the elevation in p53 is dependent on the inhibition of E6 by these compounds, p53 should not increase in the RPE-1 cells.
20,000 cells per cm^2 were plated in 6-well dishes. Cells were incubated for 24 hours at which time fresh media and compound were added. After 40 hours, cells were harvested, washed with cold PBS, and lysed in RIPA buffer with protease inhibitor. Each sample was separated on a 12% SDS-page gel, transferred to Immobilon-P membrane (Millipore) and blotted for the p53 (DO-1, Santa Cruz), p21 (c-19, Santa Cruz), and actin (A2066, Sigma). Protein quantification was performed with the Fujifilm LAS-4000 Multifunctional Imaging System. The signal intensity was measured for each band on an immunoblot, normalized to the loading control, and the fold increase was determined in relation to the appropriate DMSO treated control. RNA was isolated from these cells using Trizol Reagent (Invitrogen 15596-026). cDNA was generated using the Improm-II Reverse Transcription System (Promega A3801). qPCR was performed as described in the protocol for SsoFast EvaGreen supermix (BioRad 172-5023) using an BioRad CFX96 real-time PCR machine. Melting curves for each reaction were obtained. Each sample was assayed in triplicate and every plate contained a 5-point cDNA dilution course to calculate amplification efficiency for each primer pair. The Pfaffl method was used to determine the change in transcript levels relative to the DMSO and normalized to GAPDH.

[2] = test system: RPE-1, HeLa, C33a and HaCat cells; assay: SA-beta-gal senescence assay in other cell lines; assay type: cell-based, human; conditions: 72 hours
Experimental: This was specific to Caski cells and was not observed in RPE-1, HeLa cells, or the HPV negative control cell lines C33a and HaCat (Figures S2A,B ). […] As observed in the viability assay, this occurred in both the HPV positive and negative cell lines. […] These cell lines were also assayed for apoptosis.
12,000 cells per cm^2 were plated in 24-well dishes; after 24 hours, fresh media and compound were added. SA-beta gal staining was performed as described. Images were collected using bright field microscopy. At least four fields (~100 cells per field) were read for each treatment, and experiments were repeated 3 times. The percent SA-beta-gal positive cells was calculated for each data point.

[3] = target: T1, MBP-E6 (Human papillomavirus type 16, UniProt P03126); assay: thermal shift (Sypro Orange) assay; assay type: binding, HPV-16; conditions: versus DMSO; for effect on Tm of MBP-E6: 5-150 µM tested
T1 construct: made in house; host or cells: E. coli BL21DE(3)
T1 sequence (P03126 whole entry): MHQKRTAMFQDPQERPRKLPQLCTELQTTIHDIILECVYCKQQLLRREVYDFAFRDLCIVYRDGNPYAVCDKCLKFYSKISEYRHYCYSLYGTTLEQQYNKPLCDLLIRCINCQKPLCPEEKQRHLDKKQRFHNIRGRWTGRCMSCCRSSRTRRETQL
Experimental: A thermal shift assay was used to assess compound binding to HPV E6. In this reaction, protein denaturation is measured by an increase in fluorescence from Sypro Orange as it binds to the newly exposed hydrophobic surfaces on the protein [48]. A protein stability curve is created as a measure of the rate of protein unfolding. The relative fluorescence is plotted against temperature and the melting temperature (Tm) is determined by calculating the temperature of peak fluorescence. Ligand binding can stabilize the protein and increase the Tm. The thermal profile of MBP-E6 proteins was investigated to determine if the flavonoid derivatives could stabilize MBP-E6 protein structure during heat-induced unfolding. […] The change in Tm (∆Tm) was plotted for each compound and compared to DMSO (Figure 10F,G ).
MBP-16E6 DNA, a kind gift from G. Travé [58], was transformed into BL21DE(3) E. coli. Protein expression was performed by inoculation of a 1 mL starter culture in 100 mL of Turbo-Broth containing 0.2 % lactose, 0.05% glucose and 0.6% glycerol at 20°C for 24 hrs. Cells were lysed in 50 mM Tris HCl pH 6.8, 300 mM NaCl, 0.1 % (v/v) NP-40, 2 mM DTT and 1x protease inhibitor cocktail (EDTA-free, Roche) and sonicated as described before. Cell lysate was cleared by centrifugation at 15000xg, 4°C for 30 min and equilibrated with amylose resin beads (New England Biolabs, Inc.) by inversion for 3 hrs at 4°C. Bound beads were washed one time in lysis buffer and four times with wash buffer (50 mM Tris-HCl pH 6.8, 400 mM NaCl, 2 mM DTT, 1x protease inhibitor cocktail). Bound MBP-E6 proteins were eluted using a final concentration of 20 mM maltose in 5 bed volumes of wash buffer. All steps were performed at 4°C. Protein concentration was measured by BCA (BioRad). Thermostability of MBP-E6 proteins was analyzed at a final concentration of 1 µM in reaction buffer (50 mM TrisHCl pH 6.8, 400 mM NaCl, 2 mM DTT). MBP-E6 proteins were equilibrated with CAF-8 (5 µM-150 µM), CAF-24 (5 µM-150 µM), CAF-26 (5 µM-150 µM) or DMSO for 30 min in reaction buffer. Sypro Orange, a hydrophobic fluorescent dye, was added at the end of the incubation period at a final concentration of 5X. The final DMSO concentration (1.8% v/v) was kept constant across the concentration range. Fluorescence was measured using the FRET channel of CFX96 Real-Time PCR thermal cycler (BioRad) over a temperature range of 25°C to 95°C. Temperature increments were set to 0.5°C for 30 sec followed by plate reading. Melt curves were determined in triplicate and repeated four times. Melt curves represent the relative fluorescence of the 1st derivative of four experiments. Melting temperature (Tm) was calculated by CFX manager software. The average melting temperature of the triplicate was used to calculate the ∆Tm for each experiment. ∆Tm values are expressed as the change vs. DMSO.

SMILES	p53 protein levels [1]	SA-β-gal staining [2]	effect on Tm of MBP-E6 [3]	p21 protein levels [1]	shift of MBP-E6 Tm ([3]; at 25, 50 and 150 µM)
O=c1cc(-c2ccc(O)c(O)c2)oc2cc(O)cc(O)c12 [luteolin, reference compound]	increase in p53 protein levels, but only at concentrations higher than was required to increase p53 and p21 levels in the Caski cells	no significant increase in β-gal staining	no effect on the Tm of MBP-E6; also recorded: did not shift the Tm of MBP-E6	–	–
COc1cccc(-c2cc(=O)c3cc(-c4nnn[nH]4)ccc3o2)c1 [CAF-24]	did not induce increased levels of p53 or p21 proteins	not observed	about 1 °C	did not induce increased levels of p53 or p21 proteins	~1 °C
